Source: article PMC3968014, “Design and Synthesis of a Library of Lead-Like 2,4-Bisheterocyclic Substituted Thiophenes as Selective Dyrk/Clk Inhibitors” (PLoS ONE, 2014)
Where “and” joins values, the source holds several entries; their conditions need not be identical. Equal entries are not always repeated.

How the values were obtained:
Dyrk1B = target: T1, Dyrk1B (Homo sapiens, UniProt Q9Y463); assay: Dyrk1B kinase assay (32P-ATP, Woodtide); type: biochemical; settings: for inhibition at 1 µM / inhibition at 5 µM: read-out: percentage of inhibition Dyrk1B; for IC50: 100 µM ATP; for inhibition at 5 µM / percentage of inhibition Dyrk1B: at 5 µM
T1 construct: purchased Life Technologies PV4649 (LOT # 877059G)

Dyrk1A = target: T2, Dyrk1A (Homo sapiens, UniProt Q13627); assay: Dyrk1A kinase assay (32P-ATP, Woodtide); type: biochemical; settings: for inhibition at 5 µM: read-out: percentage of inhibition Dyrk1A; for IC50: 100 µM ATP; for inhibition at 5 µM / percentage of inhibition Dyrk1A: at 5 µM
T2 construct: encoding the catalytic domain of human Dyrk1A; thrombin cleavage site (N); made in house; host or cells: Escherichia coli BL21(DE3) with pRARE

Dyrk2 = target: T3, Dyrk2 (Homo sapiens, UniProt Q92630); assay: Dyrk2 kinase assay (32P-ATP, Woodtide); type: biochemical; settings: for IC50: 100 µM ATP, read-out: IC50 Dyrk2; for inhibition at 5 µM / inhibition at 1 µM: read-out: percentage of inhibition Dyrk2
T3 construct: made in house; host or cells: Escherichia coli BL21(DE3) with pRARE; plasmid pGEX-2TK-Dyrk2 (gift from W. Becker, Aachen)
T3 sequence (Q92630 1-601): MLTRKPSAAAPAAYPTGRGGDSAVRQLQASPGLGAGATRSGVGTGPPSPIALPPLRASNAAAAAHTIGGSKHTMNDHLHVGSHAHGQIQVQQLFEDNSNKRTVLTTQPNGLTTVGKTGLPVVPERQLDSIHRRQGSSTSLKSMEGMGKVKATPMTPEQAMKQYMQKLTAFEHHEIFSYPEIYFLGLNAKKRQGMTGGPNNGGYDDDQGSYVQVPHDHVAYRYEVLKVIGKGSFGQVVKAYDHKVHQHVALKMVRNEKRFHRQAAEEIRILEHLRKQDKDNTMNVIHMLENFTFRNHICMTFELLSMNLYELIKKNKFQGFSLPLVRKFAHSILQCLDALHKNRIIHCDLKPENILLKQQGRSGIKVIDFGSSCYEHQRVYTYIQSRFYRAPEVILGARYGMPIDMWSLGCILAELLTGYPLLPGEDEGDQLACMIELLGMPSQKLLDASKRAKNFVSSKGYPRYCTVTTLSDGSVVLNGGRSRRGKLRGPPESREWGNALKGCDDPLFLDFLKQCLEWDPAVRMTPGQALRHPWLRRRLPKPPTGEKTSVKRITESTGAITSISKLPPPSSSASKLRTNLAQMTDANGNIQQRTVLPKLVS

CK2α = target: T4, CK2α (Homo sapiens, UniProt P68400); assay: CK2α kinase assay (counter screen); type: biochemical; settings: read-out: percentage of inhibition CK2α
T4 construct: purchased Life Technologies (Invitrogen SelectScreen); Dyrk1A, Dyrk2 and CK2α in-house or gifts
Procedure: Dyrk1A, Dyrk1B, Dyrk2, CK2α and Clk1 kinase reactions were performed in a reaction buffer containing 50 mM Tris/HCl, pH 7.4, 0.1 mM EGTA, 0.5 mM DTT, 10 mM MgCl2, 100 µM ATP and 0.33 µM [γ-^32ATP] as well as the appropriate substrate peptides, which were 100 µM Woodtide for the Dyrk isoforms ([…]-NH2), 60 µM CK2 substrate peptide ([…]-NH2, from Millipore) for CK2α or RS repeat peptide ([…]) for Clk1. The CK2α protein was a kind gift of M. Montenarh (Homburg). The kinase reactions were performed at 30°C for 15 min and terminated by spotting 5 µL of the reaction mixture onto a P81 phosphocellulose membrane (Whatman). The membrane was washed four times with 0.3% phosphoric acid and one time with acetone and dried. The dry membrane was exposed in a cassette to a Phosphor Screen Imaging Plate (FujiFilm) and the signals detected by scanning of the imaging plate in a Fuji FLA-3000 PhosphoImager. The spots were quantified using AIDA software (Raytest, Version 3.52) to determine the activities of the kinases in the assay reactions. […] IC50 values were calculated by fitting the data with Origin Pro 8.6 (OriginLabs). The calculated IC50 values are representative of at least two independent determinations.

T1 sequence (Q9Y463 whole entry): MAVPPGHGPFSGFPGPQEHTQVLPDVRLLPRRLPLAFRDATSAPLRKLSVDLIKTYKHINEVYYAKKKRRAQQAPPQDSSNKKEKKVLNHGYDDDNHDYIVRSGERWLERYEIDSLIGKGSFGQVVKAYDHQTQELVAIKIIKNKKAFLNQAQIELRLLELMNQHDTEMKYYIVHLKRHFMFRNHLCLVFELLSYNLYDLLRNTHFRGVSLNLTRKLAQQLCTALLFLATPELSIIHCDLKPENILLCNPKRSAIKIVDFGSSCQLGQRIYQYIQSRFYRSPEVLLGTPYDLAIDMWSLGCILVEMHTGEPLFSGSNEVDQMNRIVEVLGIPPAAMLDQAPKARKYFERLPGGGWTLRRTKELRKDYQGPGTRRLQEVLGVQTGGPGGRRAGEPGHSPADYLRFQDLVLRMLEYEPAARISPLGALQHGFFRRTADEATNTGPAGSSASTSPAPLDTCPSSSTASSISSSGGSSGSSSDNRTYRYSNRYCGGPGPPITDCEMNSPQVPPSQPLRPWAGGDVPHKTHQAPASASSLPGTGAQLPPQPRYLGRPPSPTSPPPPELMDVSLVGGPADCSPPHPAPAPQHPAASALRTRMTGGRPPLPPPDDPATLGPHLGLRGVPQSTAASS
T4 sequence (P68400 whole entry): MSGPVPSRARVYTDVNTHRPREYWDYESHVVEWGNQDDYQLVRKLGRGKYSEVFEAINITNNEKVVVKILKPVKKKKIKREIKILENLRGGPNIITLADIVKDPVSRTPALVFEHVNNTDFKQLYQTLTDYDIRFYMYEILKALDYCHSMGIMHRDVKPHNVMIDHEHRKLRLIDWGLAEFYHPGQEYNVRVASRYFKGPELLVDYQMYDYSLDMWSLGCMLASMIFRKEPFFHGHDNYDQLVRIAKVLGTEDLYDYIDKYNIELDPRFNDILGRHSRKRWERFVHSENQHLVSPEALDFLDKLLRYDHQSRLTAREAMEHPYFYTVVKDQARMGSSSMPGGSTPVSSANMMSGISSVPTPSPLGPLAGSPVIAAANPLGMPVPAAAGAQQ

Compound	inhibition at 5 µM (Dyrk1A)	IC50 (Dyrk2)	inhibition at 5 µM (CK2α)	IC50 (Dyrk1B)	inhibition at 5 µM (Dyrk2; at 5 µM)	IC50 (Dyrk1A)	further results
Cn1cnc2cc(-c3csc(-c4cccnc4)c3)cnc21 [Compound 24]	37%	630 nM and 600 nM	7%	–	–	–	inhibition at 1 µM (Dyrk1B): 13%
c1ccc2c(-c3csc(-c4cnco4)c3)cncc2c1 [Compound 39]	20%	–	–	8070 nM	19%	–	–
Clc1cncc(-c2csc(-c3cncnc3)c2)c1 [Compound 42]	1%	–	–	–	0%	–	inhibition at 5 µM (Dyrk1B): 5%
c1cncc(-c2cc(-c3cnc4ccccc4c3)cs2)c1 [Compound 20]	–	1800 nM	27%	900 nM	–	1100 nM	–
c1cncc(-c2cc(-c3cncnc3)cs2)c1 [Compound 22]	–	1800 nM	0%	3500 nM	–	1800 nM	–
Cn1ccc(-c2csc(-c3cccnc3)c2)cc1=O [Compound 26]	–	–	–	–	27%	–	percentage of inhibition Dyrk1B (Dyrk1B): No inhibition; percentage of inhibition Dyrk1A (Dyrk1A): No inhibition
c1cncc(-c2cc(-c3cncc4ccccc34)cs2)c1 [Compound 21]	–	2900 nM	6%	3200 nM	–	3500 nM	–
c1ncc(-c2csc(-c3cnco3)c2)cn1 [Compound 36]	25%	–	–	–	16%	–	inhibition at 5 µM (Dyrk1B): 40%
Cc1cc(O)cc(-c2csc(-c3cccc(O)c3)c2)c1 [Compound 2]	10%	–	–	–	–	–	–
Fc1cncc(-c2csc(-c3cccnc3)c2)c1 [Compound 15, 3-fluoro-5-[5-(pyridin-3-yl)thiophen-3-yl]pyridine]	–	400 nM	0%	1400 nM	–	900 nM	melting point: 186 to 187 °C
c1ncc(-c2cc(-c3cn[nH]c3)cs2)o1 [Compound 38]	–	1500 nM	-20%	2200 nM	–	1500 nM	–
c1cncc(-c2csc(-c3cncc4ccccc34)c2)c1 [Compound 47]	–	1200 nM	3%	2400 nM	–	1500 nM	–
Cc1cncc(-c2csc(-c3cccnc3)c2)c1 [Compound 5, 3-methyl-5-[5-(pyridin-3-yl)thiophen-3-yl]pyridine]	–	600 nM	5%	1200 nM	–	900 nM	melting point: 106 to 107 °C
Cc1cc(-c2csc(-c3cccc(O)c3)c2)ccc1O [Compound 1]	–	–	15%	–	–	2000 nM	–
COC(=O)c1cncc(-c2csc(-c3cccnc3)c2)c1 [Compound 18]	–	1500 nM	14%	1700 nM	–	1200 nM	–
NC(=O)c1cncc(-c2csc(-c3cccnc3)c2)c1 [Compound 19, 5-[5-(pyridin-3-yl)thiophen-3-yl]pyridine-3-carboxamide]	–	300 nM	4.2%	1500 nM	–	900 nM	melting point: 217 to 218 °C
c1cc2cc(-c3csc(-c4cnco4)c3)ccc2[nH]1 [Compound 40]	18%	–	–	–	30%	–	inhibition at 5 µM (Dyrk1B): 9%
COc1cncc(-c2csc(-c3cccnc3)c2)c1 [Compound 8, 3-methoxy-5-[5-(pyridin-3-yl)thiophen-3-yl]pyridine]	–	200 nM	16%	300 nM	–	700 nM	melting point: 132 to 133 °C
c1ccc2c(-c3csc(-c4cncnc4)c3)cncc2c1 [Compound 46]	9%	–	–	–	15%	–	inhibition at 5 µM (Dyrk1B): 33%
Clc1cncc(-c2csc(-c3cccnc3)c2)c1 [Compound 16]	–	700 nM	14%	1900 nM	–	1200 nM	–

Compound	inhibition at 5 µM (Dyrk1A)	IC50 (Dyrk2)	inhibition at 5 µM (CK2α)	IC50 (Dyrk1B)	inhibition at 5 µM (Dyrk2; at 5 µM)	IC50 (Dyrk1A)	further results
CSc1ncc(-c2csc(-c3cncnc3)c2)cn1 [Compound 45]	8%	–	–	–	-24%	–	inhibition at 5 µM (Dyrk1B): 20%
Cc1cncc(-c2csc(-c3cnco3)c2)c1 [Compound 35]	–	1500 nM	-15%	1100 nM	–	1200 nM	–
CCOc1cncc(-c2csc(-c3cccnc3)c2)c1 [Compound 10]	45%	–	0%	–	–	–	inhibition at 1 µM (Dyrk1B): 6%; inhibition at 1 µM (Dyrk2): 22%
c1cncc(-c2cc(-c3cscn3)cs2)c1 [Compound 28]	31%	6700 nM	–	–	–	–	–
COc1ccc(-c2csc(-c3cccnc3)c2)cn1 [Compound 9]	–	–	0%	34000 nM	–	–	percentage of inhibition Dyrk2 (Dyrk2; at 5 µM): No inhibition
N#Cc1cncc(-c2csc(-c3cccnc3)c2)c1 [Compound 13]	–	–	3%	–	44%	2600 nM	inhibition at 5 µM (Dyrk1B): 30%
CC(=O)c1cncc(-c2csc(-c3cccnc3)c2)c1 [Compound 17, 1-{5-[5-(pyridin-3-yl)thiophen-3-yl]pyridin-3-yl}ethan-1-one]	–	900 nM	0%	1100 nM	–	900 nM	melting point: 166 to 167 °C
CSc1ncc(-c2csc(-c3cnco3)c2)cn1 [Compound 37]	7%	–	–	–	5%	–	inhibition at 5 µM (Dyrk1B): 21%
FC(F)(F)c1cncc(-c2csc(-c3cccnc3)c2)c1 [Compound 14]	–	3000 nM	0%	5400 nM	–	3100 nM	–
Cc1ccncc1-c1csc(-c2cccnc2)c1 [Compound 6]	–	–	0%	8000 nM	–	4400 nM	inhibition at 1 µM (Dyrk2): 10%
c1ncc(-c2csc(-c3cncnc3)c2)cn1 [Compound 44]	2%	–	–	–	27%	–	inhibition at 5 µM (Dyrk1B): 27%
c1cncc(-c2cc(-c3ccc4c(c3)CCO4)cs2)c1 [Compound 27]	–	–	–	–	31%	–	percentage of inhibition Dyrk1B (Dyrk1B): No inhibition; percentage of inhibition Dyrk1A (Dyrk1A): No inhibition
Cc1cc(-c2csc(-c3cccnc3)c2)ccn1 [Compound 12]	23%	–	–	–	37.5%	–	percentage of inhibition Dyrk1B (Dyrk1B): No inhibition
Cc1ccc(-c2csc(-c3cccnc3)c2)cn1 [Compound 7]	–	1600 nM	0%	3400 nM	–	4700 nM	–
Clc1cncc(-c2csc(-c3cnco3)c2)c1 [Compound 34]	0%	–	–	–	12%	–	inhibition at 5 µM (Dyrk1B): 18%
c1cncc(-c2cc(-c3cnc4ccccn34)cs2)c1 [Compound 32]	–	400 nM	0%	600 nM	–	2200 nM	–
Cn1cncc1-c1csc(-c2cccnc2)c1 [Compound 31]	44%	5100 nM	–	9100 nM	–	–	–
[O-][n+]1cccc(-c2csc(-c3cccnc3)c2)c1 [Compound 25]	4%	–	–	–	–	–	–
Cc1cncc(-c2csc(-c3cncnc3)c2)c1 [Compound 43]	–	3800 nM	-15%	2200 nM	–	5000 nM	–
Nc1cc(-c2csc(-c3cccnc3)c2)cnc1Cl [Compound 23]	–	300 nM	0%	1400 nM	–	1300 nM	–
